Source: ChEMBL document CHEMBL1201862, “PubChem BioAssay data set” (2004)
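1) Cells in 96-well plates. 2) Compound, 48 h, 5 concentrations. 3) Linear interpolation between surrounding doses. 4) Unreached endpoint = highest concentration. Here, GI50 denotes the concentration required for 50% inhibition of growth.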 The source made the active and inactive calls. No stated cut-off is given here; in the data, active = GI50 up to about 1.1 µM and inactive = higher.

Experiments:
Assay in all cases: inhibition of tumour cell growth, NCI panel, 48 h
[1] = test system: A549
[2] = test system: ACHN
[3] = test system: CCRF-CEM
[4] = test system: HCC 2998
[5] = test system: K562
[6] = test system: M14
[7] = test system: MCF7
[8] = test system: MDA-MB-231
[9] = test system: NCI-H23
[10] = test system: NCI-H460
[11] = test system: NCI-H522
[12] = test system: OVCAR-4
[13] = test system: OVCAR-5
[14] = test system: PC-3
[15] = test system: SF-295
[16] = test system: SNB-75
[17] = test system: UACC-257
[18] = test system: UO-31
[19] = test system: T47D

Measured: GI50

c1ccc(/N=C2\SC(c3ccccc3)CN2C23CC4CC(CC(C4)C2)C3)cc1 (stereo not drawn)
inactive: [1] > 100 µM | [2] > 100 µM | [3] > 100 µM | [4] > 100 µM | [5] > 100 µM | [6] > 100 µM | [7] > 100 µM | [8] > 100 µM | [9] > 100 µM | [10] > 100 µM | [11] > 100 µM | [12] > 100 µM | [13] > 100 µM | [14] > 100 µM | [15] > 100 µM | [16] > 100 µM | [17] > 100 µM | [18] > 100 µM

CCOC(=O)N/N=C(/OCC)c1ccccc1
inactive: [1] > 100 µM | [2] > 100 µM | [3] > 100 µM | [4] > 100 µM | [5] > 100 µM | [7] > 100 µM | [8] > 100 µM | [9] > 100 µM | [10] > 100 µM | [11] > 100 µM | [12] > 100 µM | [13] > 100 µM | [15] > 100 µM | [19] > 100 µM | [17] > 100 µM | [18] > 100 µM

Cc1cn(C2CC(N=[N+]=[N-])C(C(=O)O)O2)c(=O)[nH]c1=O (stereo not drawn)
inactive: [1] > 100 µM | [2] > 100 µM | [3] > 100 µM | [4] > 100 µM | [5] > 100 µM | [6] > 100 µM | [7] > 100 µM | [8] > 100 µM | [9] > 100 µM | [10] > 100 µM | [11] > 100 µM | [12] > 100 µM | [13] > 100 µM | [14] > 100 µM | [16] > 100 µM | [17] > 100 µM | [18] > 100 µM

COc1cc(C2C3=C(CCCC3=O)N(c3ccc(C)cc3)C3=C2C(=O)CCC3)c([N+](=O)[O-])cc1OC
inactive: [1] 54.5 µM | [2] 65.3 µM | [3] 40.7 µM | [4] > 100 µM | [5] 79.3 µM | [6] > 100 µM | [7] 39.4 µM | [9] > 100 µM | [10] > 100 µM | [12] 45.4 µM | [13] > 100 µM | [14] > 100 µM | [16] 24.4 µM | [18] > 100 µM

COc1ccc(/C=C/C(=O)CCN2CCN(CCC(=O)/C=C/c3ccc(OC)cc3)CC2)cc1
inactive: [1] 20.9 µM | [2] 14.2 µM | [4] 12.2 µM | [5] 5.22 µM | [6] 15.3 µM | [7] 3.56 µM | [8] 12.6 µM | [9] 15.6 µM | [10] 11.1 µM | [12] 22.8 µM | [13] 17.9 µM | [14] 12.9 µM | [15] 8.26 µM | [16] 19.1 µM | [17] 14.8 µM | [18] 14.6 µM

COc1cc(N(Cc2ccc3nc(OC)c(OC)nc3c2)Cc2ccc3nc(OC)c(OC)nc3c2)cc(OC)c1OC
inactive: [1] > 50 µM | [2] 42.2 µM | [6] > 50 µM | [7] 32.9 µM | [9] > 50 µM | [11] > 50 µM | [12] > 50 µM | [13] > 50 µM | [14] > 50 µM | [15] 19.6 µM | [16] 6.9 µM | [19] > 50 µM | [17] > 50 µM | [18] 31.5 µM

COc1ccc(NC(=S)c2ccc(CN3CCCCC3)s2)cc1
inactive: [1] 20.3 µM | [2] 31 µM | [3] 14.8 µM | [4] 16.6 µM | [5] 12.5 µM | [6] 16.7 µM | [7] 17 µM | [9] 12.5 µM | [10] 17.5 µM | [11] 14.8 µM | [12] 29 µM | [13] 16.4 µM | [14] 25.6 µM | [15] 18.3 µM | [19] 19.8 µM | [17] 16.6 µM | [18] 18.4 µM

CC1(C)CC(N2CCN(C3CC(C)(C)NC(C)(C)C3)CC2)CC(C)(C)N1
inactive: [1] > 100 µM | [2] > 100 µM | [3] > 100 µM | [4] > 100 µM | [5] > 100 µM | [6] > 100 µM | [9] > 100 µM | [10] > 100 µM | [11] > 100 µM | [12] > 100 µM | [13] > 100 µM | [15] > 100 µM | [16] > 100 µM | [17] > 100 µM | [18] > 100 µM

COc1ccc(/C=C2\CN(C)CC3C2=NN(c2ccccc2)C3c2ccc(OC)cc2)cc1 (stereo not drawn)
inactive: [1] > 100 µM | [2] 77.1 µM | [3] > 100 µM | [4] > 100 µM | [5] > 100 µM | [6] 27.2 µM | [7] > 100 µM | [9] > 100 µM | [10] > 100 µM | [11] 72.9 µM | [12] > 100 µM | [13] > 100 µM | [15] 62.2 µM | [19] > 100 µM | [17] > 100 µM | [18] > 100 µM
